{"source": "PubChem BioAssay AID1963861", "about": "(Molecular Pharmacology Branch, DTP, NCI, 2024)", "tested_on": "885724-159-R-J1-PDC KRAS PDC multicell spheroid viability", "assay": "Anticancer human tumor 885724-159-R-J1-PDC patient-derived pancreatic adenocarcinoma cell line growth inhibition [KRAS2]", "conditions": "for IC50: curve of first compound; for viability, T/C: stronger effect = lower value", "how_it_was_run": "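KRAS-mutant tumor cells were grown as spheroids with HUVEC endothelial cells and human MSCs as stroma. Targeted agents were tested alone and with KRAS pathway inhibitors. Doses started at or near clinical Cmax, or 10 microM, descending half-log.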", "key": {"[1]": {"conditions": "second compound 0.1 µM, first compound 0.01 µM"}, "[2]": {"conditions": "second compound 0.1 µM, first compound 0.0316 µM"}, "[3]": {"conditions": "second compound 0.1 µM, first compound 0.1 µM"}, "[4]": {"conditions": "second compound 0.1 µM, first compound 0.316 µM"}, "[5]": {"conditions": "second compound 0.1 µM, first compound 1 µM"}, "[6]": {"conditions": "second compound 0.1 µM, first compound 3.16 µM"}, "[7]": {"conditions": "second compound 0.316 µM, first compound 0.01 µM"}, "[8]": {"conditions": "second compound 0.316 µM, first compound 0.0316 µM"}, "[9]": {"conditions": "second compound 0.316 µM, first compound 0.1 µM"}, "[10]": {"conditions": "second compound 0.316 µM, first compound 0.316 µM"}, "[11]": {"conditions": "second compound 0.316 µM, first compound 1 µM"}, "[12]": {"conditions": "second compound 0.316 µM, first compound 3.16 µM"}, "[13]": {"conditions": "second compound 1 µM, first compound 0.01 µM"}, "[14]": {"conditions": "second compound 1 µM, first compound 0.0316 µM"}, "[15]": {"conditions": "second compound 1 µM, first compound 0.1 µM"}, "[16]": {"conditions": "second compound 1 µM, first compound 0.316 µM"}, "[17]": {"conditions": "second compound 1 µM, first compound 1 µM"}, "[18]": {"conditions": "second compound 1 µM, first compound 3.16 µM"}, "[19]": {"conditions": "second compound 3.16 µM, first compound 0.01 µM"}, "[20]": {"conditions": "second compound 3.16 µM, first compound 0.0316 µM"}, "[21]": {"conditions": "second compound 3.16 µM, first compound 0.1 µM"}, "[22]": {"conditions": "second compound 3.16 µM, first compound 0.316 µM"}, "[23]": {"conditions": "second compound 3.16 µM, first compound 1 µM"}, "[24]": {"conditions": "second compound 3.16 µM, first compound 3.16 µM"}, "[25]": {"conditions": "second compound 10 µM, first compound 0.01 µM"}, "[26]": {"conditions": "second compound 10 µM, first compound 0.0316 µM"}, "[27]": {"conditions": "second compound 10 µM, first compound 0.1 µM"}, "[28]": {"conditions": "second compound 10 µM, first compound 0.316 µM"}, "[29]": {"conditions": "second compound 10 µM, first compound 1 µM"}, "[30]": {"conditions": "second compound 10 µM, first compound 3.16 µM"}}}
{"molecule": "CC1COCCN1c1cc(-c2ccnn2C)c2ccnc(-c3ccn[nH]3)c2n1", "note": "(stereo not given) + CNCc1ccccc1-c1csc(C(C)Nc2nc(C)nc3cc(OC)c(OC)cc23)c1;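 further: spheroids exposed to agents for 7 days before readout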", "values": [{"measurement": "IC50", "setting": "second compound 0.1 µM", "result": "> 3.16", "unit": "µM"}, {"measurement": "IC50", "setting": "second compound 0.316 µM", "result": "> 3.16", "unit": "µM"}, {"measurement": "IC50", "setting": "second compound 1 µM", "result": "> 3.16", "unit": "µM"}, {"measurement": "IC50", "setting": "second compound 3.16 µM", "result": "< 0.01", "unit": "µM"}, {"measurement": "IC50", "setting": "second compound 10 µM", "result": "< 0.01", "unit": "µM"}, {"measurement": "viability, T/C", "setting": "[1]", "result": 108, "unit": "%"}, {"measurement": "viability, T/C", "setting": "[2]", "result": 85.3, "unit": "%"}, {"measurement": "viability, T/C", "setting": "[3]", "result": 80.1, "unit": "%"}, {"measurement": "viability, T/C", "setting": "[4]", "result": 61.4, "unit": "%"}, {"measurement": "viability, T/C", "setting": "[5]", "result": 58.8, "unit": "%"}, {"measurement": "viability, T/C", "setting": "[6]", "result": 58.8, "unit": "%"}, {"measurement": "viability, T/C", "setting": "[7]", "result": 108, "unit": "%"}, {"measurement": "viability, T/C", "setting": "[8]", "result": 90.4, "unit": "%"}, {"measurement": "viability, T/C", "setting": "[9]", "result": 73.8, "unit": "%"}, {"measurement": "viability, T/C", "setting": "[10]", "result": 64.2, "unit": "%"}, {"measurement": "viability, T/C", "setting": "[11]", "result": 57.8, "unit": "%"}, {"measurement": "viability, T/C", "setting": "[12]", "result": 57.4, "unit": "%"}, {"measurement": "viability, T/C", "setting": "[13]", "result": 106, "unit": "%"}, {"measurement": "viability, T/C", "setting": "[14]", "result": 84.4, "unit": "%"}, {"measurement": "viability, T/C", "setting": "[15]", "result": 75.1, "unit": "%"}, {"measurement": "viability, T/C", "setting": "[16]", "result": 64.7, "unit": "%"}, {"measurement": "viability, T/C", "setting": "[17]", "result": 55.7, "unit": "%"}, {"measurement": "viability, T/C", "setting": "[18]", "result": 56.8, "unit": "%"}, {"measurement": "viability, T/C", "setting": "[19]", "result": 2.14, "unit": "%"}, {"measurement": "viability, T/C", "setting": "[20]", "result": 0.77, "unit": "%"}, {"measurement": "viability, T/C", "setting": "[21]", "result": 0.58, "unit": "%"}, {"measurement": "viability, T/C", "setting": "[22]", "result": 0.86, "unit": "%"}, {"measurement": "viability, T/C", "setting": "[23]", "result": 1.55, "unit": "%"}, {"measurement": "viability, T/C", "setting": "[24]", "result": 1.97, "unit": "%"}, {"measurement": "viability, T/C", "setting": "[25]", "result": 0.21, "unit": "%"}, {"measurement": "viability, T/C", "setting": "[26]", "result": 0.23, "unit": "%"}, {"measurement": "viability, T/C", "setting": "[27]", "result": 0.26, "unit": "%"}, {"measurement": "viability, T/C", "setting": "[28]", "result": 0.24, "unit": "%"}, {"measurement": "viability, T/C", "setting": "[29]", "result": 0.22, "unit": "%"}, {"measurement": "viability, T/C", "setting": "[30]", "result": 0.28, "unit": "%"}]}
{"molecule": "CC(=O)OC12COC1CC(O)C1(C)C(=O)C(O)C3=C(C)C(OC(=O)C(O)C(NC(=O)OC(C)(C)C)c4ccccc4)CC(O)(C(OC(=O)c4ccccc4)C21)C3(C)C", "note": "(stereo not given) + COc1cc2nc(C)nc(NC(C)c3cc(N)cc(C(F)(F)F)c3)c2cc1OC1CCOC1", "values": [{"measurement": "IC50", "setting": "second compound 0.1 µM", "result": "> 3.16", "unit": "µM"}, {"measurement": "IC50", "setting": "second compound 0.316 µM", "result": "> 3.16", "unit": "µM"}, {"measurement": "IC50", "setting": "second compound 1 µM", "result": "> 3.16", "unit": "µM"}, {"measurement": "IC50", "setting": "second compound 3.16 µM", "result": "> 3.16", "unit": "µM"}, {"measurement": "IC50", "setting": "second compound 10 µM", "result": "> 3.16", "unit": "µM"}, {"measurement": "viability, T/C", "setting": "[1]", "result": 105, "unit": "%"}, {"measurement": "viability, T/C", "setting": "[2]", "result": 116, "unit": "%"}, {"measurement": "viability, T/C", "setting": "[3]", "result": 113, "unit": "%"}, {"measurement": "viability, T/C", "setting": "[4]", "result": 122, "unit": "%"}, {"measurement": "viability, T/C", "setting": "[5]", "result": 135, "unit": "%"}, {"measurement": "viability, T/C", "setting": "[6]", "result": 132, "unit": "%"}, {"measurement": "viability, T/C", "setting": "[7]", "result": 104, "unit": "%"}, {"measurement": "viability, T/C", "setting": "[8]", "result": 112, "unit": "%"}, {"measurement": "viability, T/C", "setting": "[9]", "result": 116, "unit": "%"}, {"measurement": "viability, T/C", "setting": "[10]", "result": 125, "unit": "%"}, {"measurement": "viability, T/C", "setting": "[11]", "result": 120, "unit": "%"}, {"measurement": "viability, T/C", "setting": "[12]", "result": 126, "unit": "%"}, {"measurement": "viability, T/C", "setting": "[13]", "result": 104, "unit": "%"}, {"measurement": "viability, T/C", "setting": "[14]", "result": 130, "unit": "%"}, {"measurement": "viability, T/C", "setting": "[15]", "result": 127, "unit": "%"}, {"measurement": "viability, T/C", "setting": "[16]", "result": 132, "unit": "%"}, {"measurement": "viability, T/C", "setting": "[17]", "result": 142, "unit": "%"}, {"measurement": "viability, T/C", "setting": "[18]", "result": 141, "unit": "%"}, {"measurement": "viability, T/C", "setting": "[19]", "result": 95.1, "unit": "%"}, {"measurement": "viability, T/C", "setting": "[20]", "result": 104, "unit": "%"}, {"measurement": "viability, T/C", "setting": "[21]", "result": 121, "unit": "%"}, {"measurement": "viability, T/C", "setting": "[22]", "result": 111, "unit": "%"}, {"measurement": "viability, T/C", "setting": "[23]", "result": 119, "unit": "%"}, {"measurement": "viability, T/C", "setting": "[24]", "result": 119, "unit": "%"}, {"measurement": "viability, T/C", "setting": "[25]", "result": 90.2, "unit": "%"}, {"measurement": "viability, T/C", "setting": "[26]", "result": 105, "unit": "%"}, {"measurement": "viability, T/C", "setting": "[27]", "result": 119, "unit": "%"}, {"measurement": "viability, T/C", "setting": "[28]", "result": 121, "unit": "%"}, {"measurement": "viability, T/C", "setting": "[29]", "result": 117, "unit": "%"}, {"measurement": "viability, T/C", "setting": "[30]", "result": 111, "unit": "%"}]}
